Reference: patent US20140162991A1, “TESTOSTERONE-ANASTROZOLE (T + A) C[…] IN THE NEO-ADJUVANT, LOCAL AND SYSTEMIC THERAPY OF NEWLY DIAGNOSED, […] BREAST CANCER” (priority 2012, published 2014)

Test: adverse effects and systemic symptoms in treated patients
Details: pharmacologic doses of testosterone

For C[C@]12CC[C@H]3[C@@H](CCC4=CC(=O)CC[C@@]43C)[C@@H]1CC[C@@H]2O [testosterone], the adverse events was “not associated with adverse events” and the androgenic side effect (applicant's patients) was “slight increase in facial hair”.
